In patent publication US5428042A, “1-(2H-1-oxo-3,4-dihydronaphtyl-6-yl)-acetyl-piperidines as kappa agonists” (Dr Lo Zambeletti S.p.A., priority 1990, dated 1995):
Structures can show the parent of a compound that is named as a salt.

Tests used:
kappa brain receptor = molecular target: T1, kappa brain receptor (Cavia porcellus, UniProt P41144); test: Kappa brain receptor binding (binding to kappa sites); details: guinea pig brain homogenate, tritiated kappa selective compound, 40 min, 25° C.
T1 construct: fresh guinea pig brain homogenates; from tissue; host or cells: guinea pig whole brain without cerebellum, fresh homogenate
T1 sequence (P41144 whole entry): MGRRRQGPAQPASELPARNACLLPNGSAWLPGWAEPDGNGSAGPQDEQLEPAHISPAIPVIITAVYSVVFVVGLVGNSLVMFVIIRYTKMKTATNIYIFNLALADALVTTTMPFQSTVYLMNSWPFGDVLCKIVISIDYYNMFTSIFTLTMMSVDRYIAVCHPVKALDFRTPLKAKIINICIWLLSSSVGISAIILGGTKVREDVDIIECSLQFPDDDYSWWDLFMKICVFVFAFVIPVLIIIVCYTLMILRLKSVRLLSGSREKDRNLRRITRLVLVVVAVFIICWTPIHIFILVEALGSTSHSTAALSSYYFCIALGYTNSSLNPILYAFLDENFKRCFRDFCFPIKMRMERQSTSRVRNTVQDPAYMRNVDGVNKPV
Protocol: Radio receptor binding to kappa site is performed on fresh guinea pig brain homogenates prepared according to Kosterlitz (1981).
Whole brain without cerebellum is homogenized in 50 mM Tris-buffer (pH 7.4 at 0° C.) and centrifuged at 49,000×g for 10 min.
The pellet is then resuspended in the same buffer, incubated at 37° C. for 45 min and centrifuged again.
1.9 ml of the final homogenate (1:100 in Tris pH 7.4, 0° C.) is used for the binding assay.
The binding to the kappa sites is performed using a tritiated kappa selective compound. Final homogenate with solutions of the cold ligand and of the labelled ligand is incubated for 40 min at 25° C., filtered through Whatman GF/C glass filter discs and washed. The radioactivity bound to the filters is counted by liquid scintillation spectrophotometry.
The non-specific binding is determined in the presence of 500 nM of the benzomorphan non-selective compound Mr 2266.
The equilibrium dissociation constant […] and the maximum binding capacity (Bmax) are determined from the analysis of saturation curves, while the inhibition constant (Ki) is determined from the analysis of competition experiments (Hill 1910; Scatchard 1949; Cheng and Prusoff 1973; Gillan et al 1980).

[1] = P-phenylquinone-induced abdominal writhing test in mice (analgesia, mouse writhing, graded); assay type: in vivo, mouse (male Charles River, Swiss Strain); details: sc, 20 min, 20 min pretreatment, p-phenylquinone 2 mg/Kg i.p., 8 min observation
Source text: The pharmacological activity of the compounds of this invention is illustrated by the mouse writhing test, described as follows:
P-phenylquinone-induced abdominal writhing test in mice
The methodology employed is based on that described by Sigmund et al, Proc. Soc. Exptl. Biol. 95, 729/1957, modified by Milne and Twomey, Agents and Actions, 10, 31/1980.
Male Charles River mice (Swiss Strain), 25-36 g body weight, were used. Animals were allowed food and water ad libitum and were randomized into groups of 10 prior to experimentation. Test compounds were dissolved in either distilled water or distilled water plus 0.1M AMS, and administered by the subcutaneous route in a final volume of 10 ml/Kg. Control animals received 10 ml/Kg of the appropriate vehicle alone. Following a pretreatment period of 20 min., mice were injected intraperitoneally with p-phenylquinone, 2 mg/Kg at 37° C. in a final volume of 10 mg/kg. […] During this period the number of abdominal writhing responses per animal were recorded where writhing consists of an intermittent contraction of the abdomen associated with hind leg extension.
The degree of antinociceptive protection afforded by the test compound was determined as the mean number of writhing responses observed in the treated group (T) expressed as a percentage of the mean number of writhing responses in the control group (C) according to the following formula:
[1-(T/C]×100%=% graded protection

Row | SMILES | Ki (kappa brain receptor) [nM] | ED50 [1] [mg/kg]
1 | CN(C)CC1CC(C)(C)CCN1C(=O)Cc1ccc2c(c1)CCCC2=O (racemic) [Example 5, (±)-1-[1-oxo-3,4-dihydro-(2H)-napht-6-yl]acetyl-2-dimethylaminomethyl-4,4-dimethyl piperidine hydrochloride] | 65 | 0.377
2 | CN(C)CC1CCC(C)(C)CN1C(=O)Cc1ccc2c(c1)CCCC2=O (racemic) [Example 6, (±)-1-[1-oxo-3,4-dihydro-(2H)-napht-6-yl]acetyl-2-dimethylaminomethyl-5,5-dimethyl piperidine hydrochloride] | 88.7 | 0.641
3 | CN(C)C[C@@H]1CCCCN1C(=O)Cc1ccc2c(c1)CCCC2=O [Example 1, (2S)-1-[1-oxo-3,4-dihydro-(2H)-napht-6-yl]acetyl-2-dimethyl-aminomethyl piperidine hydrochloride] | – | 0.154
4 | CCN(C)C[C@@H]1CCCCN1C(=O)Cc1ccc2c(c1)CCCC2=O [Example 2, (2S)-1-[1-oxo-3,4-dihydro-(2H)-napht-6-yl]acetyl-2-(N-methyl-N-ethyl)aminomethyl piperidine hydrochloride] | – | 0.061
5 | CCN(CC)C[C@@H]1CCCCN1C(=O)Cc1ccc2c(c1)CCCC2=O [Example 3, (2S)-1-[1-oxo-3,4-dihydro-(2H)-napht-6-yl]acetyl-2-diethylaminomethyl piperidine hydrochloride] | – | 0.427
6 | CCCN(C)C[C@@H]1CCCCN1C(=O)Cc1ccc2c(c1)CCCC2=O [Example 9, (2S)-1-[1-oxo-3,4-dihydro-(2H)-napht-6-yl]acetyl-2-(N-methyl-N-propyl)aminomethyl piperidine hydrochloride] | 10 to 50 | 0.221
7 | CC(C)N(C)C[C@@H]1CCCCN1C(=O)Cc1ccc2c(c1)CCCC2=O [Example 10, (2S)-1-[1-oxo-3,4-dihydro-(2H)-napht-6-yl]acetyl-2-(N-methyl-N-isopropyl)aminomethyl piperidine hydrochloride emihydrate] | 2.87 | 0.078
8 | C=CCN(C)C[C@@H]1CCCCN1C(=O)Cc1ccc2c(c1)CCCC2=O [Example 11, (2S)-1-[1-oxo-3,4-dihydro-(2H)-napht-6-yl]acetyl-2-(N-allyl-N-methyl)aminomethyl piperidine hydrochloride] | ~50 | 0.13
9 | CN(C[C@@H]1CCCCN1C(=O)Cc1ccc2c(c1)CCCC2=O)C1CC1 [Example 12, (2S)-1-[1-oxo-3,4-dihydro-(2H)-napht-6-yl]acetyl-2-(N-cyclopropyl-N-methyl)aminomethyl piperidine hydrochloride] | 50 | 0.141
10 | CN(C)C[C@@H]1CC(C)(C)CCN1C(=O)Cc1ccc2c(c1)CCCC2=O [Example 15, (-)-1-[1-oxo-3,4-dihydro-(2H)-napht-6-yl]acetyl-2-dimethylaminomethyl-4,4-dimethylpiperidine D(-) tartrate] | 22.9 | 0.115
11 | C#CCN(C)C[C@@H]1CCCCN1C(=O)Cc1ccc2c(c1)CCCC2=O [Example 16, (2S)-1-[1-oxo-3,4-dihydro-(2H)-napht-6-yl]acetyl-2-(N-methyl-N-propargyl)aminomethyl piperidine hydrochloride] | – | 0.056
12 | CN(C[C@@H]1CCCCN1C(=O)Cc1ccc2c(c1)CCCC2=O)C1CCC1 [Example 17, (2S)-1-[1-oxo-3,4-dihydro-(2H)-napht-6-yl]acetyl-2-(N-cyclobutyl-N-methyl)aminomethyl piperidine hydrochloride] | – | 0.127
13 | CN(C[C@@H]1CCCCN1C(=O)Cc1ccc2c(c1)CCCC2=O)C1CCCC1 [Example 18, (2S)-1-[1-oxo-3,4-dihydro-(2H)-napht-6-yl]acetyl-2-(N-cyclopentyl-N-methyl)aminomethyl piperidine hydrochloride .1/4 H2 O] | – | 0.21
